Measured values: patent US8604016B2, “Heterocyclic inhibitors of glutaminase” (Calithera Biosciences Inc., priority 2011, dated 2013)
Converted amounts (≈) assume the structure as drawn. Like-named read-outs stand apart in the source and are kept apart here.

Assays:
[1] = test system: P493-6 (myc "on") cells; experiment: Cell Proliferation Assay (72 hrs, Cell Titer Glo or Viacount FACS); format: cell-based
Description: P493-6 (myc “on”) cells were maintained in growth media (RPMI-1640, 10% FBS, 2 mM glutamine, 100 units/ml Penicillin and 100 μg/ml streptomycin) at 37° C. with 5% CO2. For compound assay, P493-6 cells were plated in 96-well V-bottom plates on the day of compound addition in 50 μl of growth media at a cell density of 200,000 cells/ml (10,000 cells/well). Compounds were serially diluted in 100% DMSO at 200-times the final concentration. Compounds were diluted 100-fold into growth media and then 50 μl of this mixture was added to cell plates making the final concentration of DMSO 0.5%. Cells were incubated with compound for 72 hrs at 37° C. with 5% CO2 and analyzed for antiproliferative effects either by Cell Titer Glo (Promega) or FACS analysis using the Viacount (Millipore) kit on the Guava instrument.

[2] = test system: HCT116 colon carcinoma xenograft; experiment: Xenograft Efficacy Studies (HCT116 colon carcinoma xenograft); format: in vivo, scid/bg mice; settings: intraperitoneal administration twice daily to mice, FIG. 1
Description: Certain compounds were assayed for in vivo efficacy in xenograft models as follows.
Female scid/bg mice, approximately 6 weeks of age, were implanted subcutaneously on the right flank with 5×10^6 HCT116 cells per mouse in a volume of 100 uL of sterile PBS. When tumors reached a volume of 50-100 mm^3, mice were randomized to groups of n=10 to receive either vehicle or test compound delivered twice daily by intraperitoneal injection. Tumors were measured three times per week using Vernier calipers and tumor volume calculated using the formula: Volume=(Length×Width^2/2), where length and width are the longest perpendicular sides of the tumor. Dosing continued twice daily until control tumors reached a size of 2000 mm^3. Statistical comparisons were made using a 2-way ANOVA with Bonferroni post-test.

[3] = target: recombinant form of Glutaminase 1 (GAC) (Homo sapiens, UniProt O94925); experiment: Recombinant Enzyme Assay (GAC coupled to GDH, NADH absorbance, no preincubation); format: biochemical; settings: no preincubation; read-out: GAC Delta N2 IC50 no preinc
In short: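 GAC (4 nM) in Tris-HCl pH 8.0 with 150 mM K2HPO4, EDTA, BSA, DTT, plus 4 units/ml GDH and 4 mM ADP, without preincubation. Absorbance at 340 nm was read kinetically for 15 min at 20° C. Slopes (mAU/min) were compared with DMSO-only and control-compound wells on the same plate.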

[4] = Solubility (18 hr vortex mixing at room temperature, filtration, HPLC); format: physicochemical; settings: thermodynamic from solid
Description: Ca. 1 mg portions of test article were combined with 120 μL solvent in wells of a 96×2 mL polypropylene plate. […] The contents of all wells were then filtered through a 0.45 μm GHP filter plate to yield clear filtrates. 5 μL of each filtrate was diluted into 100 μL DMF and vortex mixed to yield HPLC samples. Duplicate quantitation standards for each test article were prepared by diluting weighed portions of solid test article in measured volumes of DMF. 2 μL of each HPLC sample and quantitation standard were analyzed by HPLC using the method outlined in Table 5. Dissolved test article concentrations were calculated by peak area ratio against the appropriate quantitation standards.

[5] = test system: Caco-2 cell monolayers; experiment: Caco-2 Permeability Assay (bidirectional); format: in vitro ADME
From the text: (§1) Caco-2 cells are commonly used in a confluent monolayer on a cell culture insert filter. When cultured in this format and under specific conditions, the cells become differentiated and polarized such that their phenotype, morphologically and functionally resembles the enterocytes lining the small intestine. The cell monolayer provides a physical and biochemical barrier to the passage of small molecules, and is widely used across the pharmaceutical industry as an in vitro model of the human small intestinal mucosa to predict the absorption of orally administered drugs (Hidalgo et al., Gastroenterology, 1989; Artursson, J. Pharm. Sci., 1990). The correlation between the in vitro apparent permeability (P ? app) across Caco-2 monolayers and the in vivo absorption is well established (Artursson et al., Biochem. Biophys. Res. Comm., 1991).
(§2) The present assay was used to determine the bidirectional permeability of the compounds of the invention through Caco-2 cell monolayers. Caco-2 cells were grown in confluent monolayers where the media of both the apical (A) and basolateral (B) sides were at pH 7.4. Compounds were dosed at 1 μM in the presence of 200 μM Lucifer Yellow, on the apical side (A→B) or the basolateral side (B→A) for assessment, in duplicate.
(§3) The absorption potential of compounds were classified as either Low (P-app <1×10^−6 cm/s) or High (P-app >1×10^−6 cm/s).

[6] = Caco-2 Permeability Assay (bidirectional); format: in vitro ADME; settings: human; for recovery at 120 min, 1 μM / Papp A→B at 120 min, 1 μM / Papp B→A at 120 min, 1 μM: pH 7.4; for efflux ratio at 120 min, 1 µM / Papp A→B at 120 min, 1 μM / Papp B→A at 120 min, 1 μM / permeability class (Low/High absorption potential) at 120 min, 1 µM: Caco-2; for efflux ratio at 120 min, 1 µM: (Papp B→A)/(Papp A→B); for Papp A→B at 120 min, 1 μM: Direction A→B; for Papp A→B at 120 min, 1 μM / Papp B→A at 120 min, 1 μM: unit not given (thresholds in 10^−6 cm/s); for Papp B→A at 120 min, 1 μM: Direction B→A; for permeability class (Low/High absorption potential) at 120 min, 1 µM: read-out: Permeability Classification
From the text: as §1, §2, §3

[7] = read-out: Cell prolif P493 72h IC50, P493-6 cells, 72 h
[8] = 50 mM citrate buffer pH 2.3, 20 °C, aqueous buffer, 50 mM Cit pH 2.3, room temperature
[9] = 50 mM citrate buffer pH 3.3, 20 °C, aqueous buffer, 50 mM Cit pH 3.3, room temperature
[10] = 50 mM citrate buffer pH 4.4, 20 °C, aqueous buffer, 50 mM Cit pH 4.4, room temperature
[11] = 50 mM citrate buffer pH 5.4, 20 °C, aqueous buffer, 50 mM Cit pH 5.4, room temperature
[12] = 20 °C, aqueous buffer, PBS, room temperature
[13] = 20 °C, aqueous with cosolvent or surfactant or cyclodextrin, 10% CrEL/50 mM cit, room temperature
[14] = 20 °C, aqueous with cosolvent or surfactant or cyclodextrin, 10% PS80/50 mM cit, room temperature
[15] = 20 °C, aqueous with cosolvent or surfactant or cyclodextrin, 20% HPBCD/50 mM cit, room temperature
[16] = 20 °C, aqueous with cosolvent or surfactant or cyclodextrin, 20% SBECD/50 mM cit, room temperature
[17] = 20 °C, oil or lipid, Capryol 90, room temperature
[18] = 20 °C, oil or lipid, Capryol PGMC, room temperature
[19] = 20 °C, oil or lipid, Labrasol, room temperature
[20] = 20 °C, oil or lipid, canola oil, room temperature
[21] = 20 °C, organic solvent or mixture, EtOH, room temperature
[22] = 20 °C, organic solvent or mixture, PEG400, room temperature
[23] = 20 °C, organic solvent or mixture, PG, room temperature
[24] = 20 °C, pH 1, simulated gastric fluid, 0.1M HCl, room temperature
[25] = 20 °C, pH 13, aqueous buffer, 0.1M NaOH, room temperature
[26] = 20 °C, saline or isotonic, 0.9% NaCl, room temperature
[27] = water, room temperature (ca. 20 C)

O=C(Nc1nnc(CCCCc2nnc(NC(=O)C3COc4ccccc43)s2)s1)C1COc2ccccc21 (centres unmarked) [Compound 135]
IC50 [1, 7]: 490 nM

O=C(CCN1CCOCC1)OCC(C(=O)Nc1nnc(CCCCc2nnc(NC(=O)C(COC(=O)CCN3CCOCC3)c3ccccc3)s2)s1)c1ccccc1 (centres unmarked) [Compound 188, {[5,5′-(butane-1,4-diyl)-bis(1,3,4-thiadiazole-5,2-diyl)]-bis(azanediyl)}-bis(3-oxo-2-phenylpropane-3,1-diyl)-bis(3-morpholinopropanoate)]
tumor size [2]: reduced tumor size
IC50 [3]: 2000 nM

CC(C)(C)OC(=O)Nc1ccc(CC(=O)Cc2nnc(CCCCc3nnc(NC(=O)Cc4ccc(NC(=O)OC(C)(C)C)cc4)s3)s2)cc1 [Compound 192]
IC50 ([1]; P493-6, 72 h, read-out: Cell prolif P493 72h IC50, P493-6 cells, 72 h): 30 nM
IC50 [3]: > 20000 nM

O=C(Cc1cccc(CN2CCNCC2)c1)Nc1nnc(CCCCc2nnc(NC(=O)Cc3cccc(CN4CCNCC4)c3)s2)s1 [Compound 276]
IC50 [1, 7]: 56000 nM

O=C(Cc1cccc(OC(F)(F)F)c1)Nc1ccc(CCCCc2nnc(NC(=O)Cc3ccccc3)s2)nn1 [Compound 585]
solubility at 18 h [4, 8]: < 2 µg/mL
solubility at 18 h [4, 9]: < 2 µg/mL
solubility at 18 h [4, 10]: < 2 µg/mL
solubility at 18 h [4, 11]: < 2 µg/mL
solubility at 18 h [4, 12]: < 2 µg/mL
solubility at 18 h [4, 13]: 228 µg/mL (≈ 400 µM)
solubility at 18 h [4, 14]: 261 µg/mL (≈ 457 µM)
solubility at 18 h [4, 15]: 327 µg/mL (≈ 573 µM)
solubility at 18 h [4, 16]: 125 µg/mL (≈ 219 µM)
solubility at 18 h [4, 17]: 1740 µg/mL (≈ 3060 µM)
solubility at 18 h [4, 18]: 1780 µg/mL (≈ 3120 µM)
solubility at 18 h [4, 19]: 5000 µg/mL (≈ 8770 µM)
solubility at 18 h [4, 20]: 72 µg/mL (≈ 126 µM)
solubility at 18 h [4, 21]: 1990 µg/mL (≈ 3490 µM)
solubility at 18 h [4, 22]: 3940 µg/mL (≈ 6910 µM)
solubility at 18 h [4, 23]: 1420 µg/mL (≈ 2490 µM)
solubility at 18 h [4, 24]: < 2 µg/mL
solubility at 18 h [4, 25]: 192 µg/mL (≈ 336 µM)
solubility at 18 h [4, 26]: < 2 µg/mL
solubility at 18 h [4, 27]: < 2 µg/mL
Significant Efflux [5]: Yes (efflux ratios being significant when greater than or equal to 3 when the Papp (B→A) was greater than or equal to 1×10^−6 cm/s)
recovery at 120 min, 1 μM ([6]; Caco-2, pH 7.4, Direction A→B): 42%
recovery at 120 min, 1 μM ([6]; Caco-2, pH 7.4, Direction B→A): 53%
efflux ratio at 120 min, 1 µM [6]: 3.1
Papp A→B at 120 min, 1 μM [6]: 7.52 ×10⁻⁶ cm/s
Papp B→A at 120 min, 1 μM [6]: 23.4 ×10⁻⁶ cm/s
permeability class (Low/High absorption potential) at 120 min, 1 µM [6]: > 1 ×10⁻⁶ cm/s

Nc1nnc(CCCCc2ccc(NC(=O)Cc3cccc(OC(F)(F)F)c3)nn2)s1 [Compound 657, N-(6-(4-(5-amino-1,3,4-thiadiazol-2-yl)butyl)pyridazin-3-yl)-2-(3-(trifluoromethoxy)phenyl)acetamide]
IC50 ([1]; P493-6, 72 h, P493-6 cells, 72 h, read-out: Cell prolif P493 72h): 1500 nM

O=C(Cc1cccc(OC(F)(F)F)c1)Nc1ccc(CCCCc2nnc(NC(=O)Cc3ccccn3)s2)nn1 [Compound 670]
IC50 ([1]; P493-6 cells, 72 h, read-out: Cell prolif P493 72h): 30 nM
Significant Efflux [5]: Yes (efflux ratios being significant when greater than or equal to 3 when the Papp (B→A) was greater than or equal to 1×10^−6 cm/s)
recovery at 120 min, 1 μM ([6]; Caco-2, pH 7.4, Direction A→B): 70%
recovery at 120 min, 1 μM ([6]; Caco-2, pH 7.4, Direction B→A): 72%
Papp A→B at 120 min, 1 μM [6]: 9.64 ×10⁻⁶ cm/s
Papp B→A at 120 min, 1 μM [6]: 59.6 ×10⁻⁶ cm/s
permeability class (Low/High absorption potential) at 120 min, 1 µM [6]: > 1 ×10⁻⁶ cm/s

O=C(Cc1cccc(OC(F)(F)F)c1)Nc1ccc(CCCCc2nnc(NC(=O)[C@@H](O)c3ccccc3)s2)nn1 [Compound 703]
solubility at 18 h [4, 8]: < 4 µg/mL
solubility at 18 h [4, 9]: < 4 µg/mL
solubility at 18 h [4, 10]: < 4 µg/mL
solubility at 18 h [4, 11]: < 4 µg/mL
solubility at 18 h [4, 12]: < 4 µg/mL
solubility at 18 h [4, 13]: 309 µg/mL (≈ 527 µM)
solubility at 18 h [4, 14]: 378 µg/mL (≈ 644 µM)
solubility at 18 h [4, 15]: 651 µg/mL (≈ 1110 µM)
solubility at 18 h [4, 16]: 476 µg/mL (≈ 811 µM)
solubility at 18 h [4, 17]: 7410 µg/mL (≈ 12600 µM)
solubility at 18 h [4, 18]: 3680 µg/mL (≈ 6280 µM)
solubility at 18 h [4, 19]: 20700 µg/mL (≈ 35300 µM)
solubility at 18 h [4, 20]: 14 µg/mL (≈ 23.9 µM)
solubility at 18 h [4, 21]: 2640 µg/mL (≈ 4510 µM)
solubility at 18 h [4, 22]: 22400 µg/mL (≈ 38200 µM)
solubility at 18 h [4, 23]: 4700 µg/mL (≈ 8010 µM)
solubility at 18 h [4, 24]: < 4 µg/mL
solubility at 18 h [4, 25]: 656 µg/mL (≈ 1120 µM)
solubility at 18 h [4, 26]: < 4 µg/mL
solubility at 18 h [4, 27]: < 4 µg/mL
Significant Efflux [5]: Yes (efflux ratios being significant when greater than or equal to 3 when the Papp (B→A) was greater than or equal to 1×10^−6 cm/s)
recovery at 120 min, 1 μM ([6]; Caco-2, pH 7.4, Direction A→B): 51%
recovery at 120 min, 1 μM ([6]; Caco-2, pH 7.4, Direction B→A): 66%
efflux ratio at 120 min, 1 µM [6]: 6.6
Papp A→B at 120 min, 1 μM [6]: 6.26 ×10⁻⁶ cm/s
Papp B→A at 120 min, 1 μM [6]: 41 ×10⁻⁶ cm/s
permeability class (Low/High absorption potential) at 120 min, 1 µM [6]: > 1 ×10⁻⁶ cm/s
